Measured values as given in the supplement of paper PMC10307832.

What was measured:
Experiment in all cases: relative viability (nuclei count vs DMSO), 5 days (fraction); higher = more cells survive
QS11 + Navitoclax = compound: C1CC2=C(C1)C=C(C=C2)OC3=NC(=C4C(=N3)N(C=N4)CC5=CC=C(C=C5)C6=CC=CC=C6)N[C@@H](CC7=CC=CC=C7)CO [QS11] + CC1(C)CCC(c2ccc(Cl)cc2)=C(CN2CCN(c3ccc(C(=O)NS(=O)(=O)c4ccc(N[C@H](CCN5CCOCC5)CSc5ccccc5)c(S(=O)(=O)C(F)(F)F)c4)cc3)CC2)C1 [Navitoclax] (partner 0.5 µM)
Outline: (§1)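 Dosing by pin tool came one day after lung cancer cell lines were seeded in 1536-well plates, using either one drug or a fixed anchor-drug dose plus five library-drug doses (not always all listed) in √10 steps. After 5 days, nuclei were counted on 4× images. Relative viability is treated-well nuclei count divided by vehicle-well nuclei count, and values are medians of duplicate plates.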

[1] = compound: C[As](C)SC[C@H](NC(=O)CC[C@H](N)C(=O)O)C(=O)NCC(=O)O [Darinaparsin] + C[C@]1(O)C[C@@H](c2nc(-c3ccc4ccc(-c5ccccc5)nc4c3)c3c(N)nccn32)C1 [Linsitinib] (partner 1 µM)
Outline: as §1

[2] = compound: C[As](C)SC[C@H](NC(=O)CC[C@H](N)C(=O)O)C(=O)NCC(=O)O [Darinaparsin] + CC(=O)Nc1cccc(-n2c(=O)n(C3CC3)c(=O)c3c(Nc4ccc(I)cc4F)n(C)c(=O)c(C)c32)c1 [Trametinib] (partner 0.02 µM)
Outline: as §1

AZ628 + OSI-027 = compound: CC1=C(C=C(C=C1)NC(=O)C2=CC(=CC=C2)C(C)(C)C#N)NC3=CC4=C(C=C3)N=CN(C4=O)C [AZ628] + COc1cccc2cc(-c3nc([C@H]4CC[C@H](C(=O)O)CC4)n4ncnc(N)c34)[nH]c12 [OSI-027] (partner 0.5 µM)
Outline: as §1

Cell Line | relative viability (QS11 + Navitoclax; first compound 0.08 µM) | relative viability (QS11 + Navitoclax; first compound 0.253 µM) | relative viability (QS11 + Navitoclax; first compound 0.8 µM) | relative viability (QS11 + Navitoclax; first compound 2.53 µM) | relative viability (QS11 + Navitoclax; first compound 8 µM) | relative viability ([1]; first compound 0.08 µM) | relative viability ([1]; first compound 0.8 µM) | relative viability ([1]; first compound 2.53 µM) | relative viability ([1]; first compound 8 µM) | relative viability ([2]; first compound 0.08 µM) | relative viability ([2]; first compound 0.8 µM) | relative viability ([2]; first compound 2.53 µM) | relative viability ([2]; first compound 8 µM) | relative viability (AZ628 + OSI-027; first compound 0.08 µM) | relative viability (AZ628 + OSI-027; first compound 0.253 µM) | relative viability (AZ628 + OSI-027; first compound 0.8 µM) | relative viability (AZ628 + OSI-027; first compound 2.53 µM) | relative viability (AZ628 + OSI-027; first compound 8 µM)
NCI-H23 | 0.818 | 0.863 | 0.872 | 0.75 | 0.692 | 0.661 | 0.635 | 0.482 | 0.685 | 0.402 | 0.339 | 0.43 | 0.409 | 0.568 | 0.528 | 0.464 | 0.474 | 0.309
NCI-H647 | 1.28 | 1.12 | 1.07 | 1.13 | 1.1 | 1.84 | 1.1 | 1.17 | 1.53 | 0.537 | 0.512 | 0.385 | 0.655 | 0.666 | 0.722 | 0.495 | 0.537 | 0.462
NCI-H1915 | 0.816 | 0.805 | – | 0.865 | 0.868 | 1.11 | 1.09 | 1.03 | 1.13 | 0.336 | 0.301 | 0.288 | 0.3 | 0.447 | 0.476 | 0.428 | 0.355 | 0.243
201T | 1.19 | 1.22 | 0.994 | 1.24 | 1.17 | 1.04 | 1.03 | 1.04 | 1.06 | 0.777 | 0.728 | 0.711 | 0.751 | 0.838 | 0.707 | 0.689 | 0.761 | 0.849
NCI-H3122 | 1.01 | 1.06 | 0.698 | 1.06 | 0.817 | 1.1 | 1.08 | 1.08 | 1.03 | 0.231 | 0.208 | 0.216 | 0.347 | 0.559 | 0.344 | 0.287 | 0.267 | 0.16
HCC-78 | 0.802 | 0.797 | 0.756 | 0.841 | 0.818 | 0.502 | 0.56 | 0.588 | 0.424 | 0.823 | 0.673 | 0.879 | 1.24 | 0.427 | 0.37 | 0.391 | 0.341 | 0.399
HARA | 1.17 | 1.21 | – | 1.21 | 1.35 | 1.38 | 0.852 | 0.75 | 1.19 | 0.825 | – | 0.733 | 0.638 | 0.322 | 0.432 | 0.472 | 0.439 | 0.245
NCI-H2347 | 0.598 | 0.826 | 0.716 | 0.743 | 0.839 | 1 | 0.942 | 0.911 | 1.03 | 0.249 | 0.266 | 0.307 | 0.242 | 0.337 | 0.377 | 0.396 | 0.339 | 0.254
NCI-H1437 | 1.12 | 1.22 | 0.718 | 0.943 | 0.936 | 1.52 | 1.14 | 0.888 | 1.29 | 0.594 | 0.562 | 0.505 | 0.674 | 0.896 | 0.836 | 0.723 | 0.934 | 0.904
